The target of this experiment is T1, α4β7 (Homo sapiens, UniProt P13612+P26010).
T1 construct: α4β7 expressing cells (RPMI-8866); endogenous in cells; host or cells: RPMI 8866
T1 sequence (P13612 34-1032): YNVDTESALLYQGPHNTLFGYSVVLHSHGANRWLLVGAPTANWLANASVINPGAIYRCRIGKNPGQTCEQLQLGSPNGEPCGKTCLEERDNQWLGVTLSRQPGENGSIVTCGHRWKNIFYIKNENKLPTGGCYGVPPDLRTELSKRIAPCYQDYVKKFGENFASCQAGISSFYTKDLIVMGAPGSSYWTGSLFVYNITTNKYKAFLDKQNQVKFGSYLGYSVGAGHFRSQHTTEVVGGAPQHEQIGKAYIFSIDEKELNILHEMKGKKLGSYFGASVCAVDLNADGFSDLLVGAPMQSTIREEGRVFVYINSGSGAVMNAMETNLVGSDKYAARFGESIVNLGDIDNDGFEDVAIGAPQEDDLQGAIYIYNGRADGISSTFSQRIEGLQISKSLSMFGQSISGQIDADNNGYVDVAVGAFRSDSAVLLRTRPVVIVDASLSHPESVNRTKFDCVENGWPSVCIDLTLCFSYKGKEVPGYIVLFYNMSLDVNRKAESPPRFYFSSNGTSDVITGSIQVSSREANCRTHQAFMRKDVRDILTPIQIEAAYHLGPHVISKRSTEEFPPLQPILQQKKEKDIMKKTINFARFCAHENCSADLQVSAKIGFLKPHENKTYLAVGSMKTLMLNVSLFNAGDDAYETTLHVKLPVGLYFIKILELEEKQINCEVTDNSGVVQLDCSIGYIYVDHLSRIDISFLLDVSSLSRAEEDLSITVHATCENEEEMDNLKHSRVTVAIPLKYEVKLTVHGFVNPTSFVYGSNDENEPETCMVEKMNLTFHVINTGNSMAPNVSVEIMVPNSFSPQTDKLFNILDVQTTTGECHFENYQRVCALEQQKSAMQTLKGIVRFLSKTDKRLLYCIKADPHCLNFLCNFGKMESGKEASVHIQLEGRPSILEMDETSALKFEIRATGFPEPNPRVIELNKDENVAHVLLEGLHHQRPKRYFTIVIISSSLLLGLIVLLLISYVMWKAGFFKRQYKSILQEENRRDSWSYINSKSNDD
T1 sequence (P26010 20-798): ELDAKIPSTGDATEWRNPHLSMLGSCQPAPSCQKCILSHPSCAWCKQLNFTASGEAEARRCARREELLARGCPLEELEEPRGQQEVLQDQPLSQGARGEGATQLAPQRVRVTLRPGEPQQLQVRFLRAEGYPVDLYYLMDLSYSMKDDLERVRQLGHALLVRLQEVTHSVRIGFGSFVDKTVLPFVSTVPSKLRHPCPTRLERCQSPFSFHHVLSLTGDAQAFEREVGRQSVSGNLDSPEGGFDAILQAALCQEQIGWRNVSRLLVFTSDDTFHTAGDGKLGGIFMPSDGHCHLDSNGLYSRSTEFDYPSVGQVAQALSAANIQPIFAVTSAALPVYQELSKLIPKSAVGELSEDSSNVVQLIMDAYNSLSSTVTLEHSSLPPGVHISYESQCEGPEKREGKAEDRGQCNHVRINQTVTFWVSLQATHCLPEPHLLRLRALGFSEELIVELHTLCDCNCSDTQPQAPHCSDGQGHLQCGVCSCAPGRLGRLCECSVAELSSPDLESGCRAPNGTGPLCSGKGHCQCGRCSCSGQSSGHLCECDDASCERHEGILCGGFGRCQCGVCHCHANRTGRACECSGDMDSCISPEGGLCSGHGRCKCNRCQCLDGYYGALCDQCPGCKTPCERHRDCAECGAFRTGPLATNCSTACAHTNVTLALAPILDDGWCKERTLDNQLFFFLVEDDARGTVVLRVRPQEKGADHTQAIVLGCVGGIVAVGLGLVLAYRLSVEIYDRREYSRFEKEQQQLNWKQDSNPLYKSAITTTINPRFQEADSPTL
Briefly: Cell adhesion assay, RPMI8866 cells adhering to MAdCAM coated plates. In kind it is cell-based. To be noted: RPMI8866 cells on recombinant human MAdCAM coated plates; read-out: CA Assay (Example 7) IC50. The procedure:
Three in vitro assays were used to examine the α4β7 mechanistic process used by cells: 1) ligand:receptor affinity, 2) the avidity of those interactions on a cell's surface, and 3) how those interactions fare under an imposing force. In Example 5, a Fluorescence Polarization (FP) assay is used to measure compound activity through binding competition with the fluorescein-labeled peptide. In Example 6, the potency of compounds against α4β7 is measured in the cell-based ligand binding assay (LBA), using RPMI 8866 cells incubated with the compound samples in competition with soluble MAdCAM-1 ligand. In Example 7, activity of compounds is evaluated in a cell adhesion assay that mechanistically tests what occurs in vivo when trafficking cells utilize α4β7 to adhere to MAdCAM-1 expressing HEVs of the gut during the extravasation process. In the cell adhesion assay of Example 7, a MAdCAM1-(Fc) is coated on plastic, and α4β7 expressing cells (RPMI-8866) are allowed to adhere to the coated surface in the presence of the test compounds. Next, the force of washing with buffer is applied to cells thereby testing the strength of that adhesion. Unattached cells are removed and the remaining adherent cells are quantified.
Example 7 describes a cell adhesion assay.
To each well of a 96 well plate, 100 ug of recombinant human MAdCAM in 100 ul PBS is added and incubated overnight at 4° C. After incubation MAdCAM is removed by aspiration and 200 ul of PBS+1% BSA is added to block the plate for 2 hours at 37° C. and 5% CO2. During this incubation dilution curves of compound are made in 100% DMSO in 96 well V bottom plates. 1.75 ul of diluted compounds are then transferred to a new 96 well U bottom plate containing 20 ul of assay media (phosphate free DMEM+25 mM HEPES+1% BSA). To this an additional 155 ul of assay media is added with mixing by pipetting up and down. This mixture is allowed to incubate for 15 minutes at 37° C. and 5% CO2. After incubation 175 ul of assay media containing 2e6/mL RPMI8866 cells is added to compound containing wells without mixing and plate is allowed to incubate for another 15 minutes at 37° C. and 5% CO2. During this incubation MAdCAM coated plates are removed from incubator and washed twice with 200 ul PBS+0.1% BSA. […] This plate is then incubated at 37° C. and 5% CO2 for 1 hour. After incubation plates are washed twice with 200 ul and once with 50 ul of phenol free RPMI+1% BSA. A final 50 ul of phenol free RPMI+1% BSA is added to wells after last wash. Next 50 ul of Promega cell titer glow is added to the wells. Plate is incubated on shaker for 2 minutes at 200 RPM followed by another 8 minutes off shaker before having the luminescence read on a Biotek Citation 5 plate reader. Raw data is converted to % inhibition compared to bottom of curve and analyzed using a 4-parameter non linear curve in Prism to determine IC50 and IC90.

Turning to `Cc1ccn([C@@H](NC(C)C)C(=O)N[C@@H](CC(=O)O)c2cncc(-c3c(C)cccc3C)c2)c(=O)c1` [Example C-7, reference compound], the IC50 lay within 10 to 50 nM.
As for `Cc1ccc(F)c(C)c1-c1cc(C2CC2)c(F)c([C@H](CC(=O)O)NC(=O)[C@H](CC(C)C)n2cc(CCN3CCC3)c(C(F)(F)F)cc2=O)c1F` [HH-P2, (3S)-3-(2-(5-(2-(azetidin-1-yl)ethyl)-2-oxo-4-(trifluoromethyl)pyridin-1(2H)-yl)-4-methylpentanamido)-3-(5-cyclopropyl-2,3′,4-trifluoro-2′,6′-dimethyl-[1,1′-biphenyl]-3-yl)propanoic Acid], the IC50 is 5 to 10 nM.
Turning to `Cc1cc(C)c(-c2cc(C3CC3)c(F)c([C@H](CC(=O)O)NC(=O)[C@H](CC(C)C)n3cc(CCN4CCC4)c(C(F)(F)F)cc3=O)c2F)c(C)c1` [HM-P2, (3S)-3-(2-(5-(2-(azetidin-1-yl)ethyl)-2-oxo-4-(trifluoromethyl)pyridin-1(2H)-yl)-4-methylpentanamido)-3-(5-cyclopropyl-2,4-difluoro-2′,4′,6′-trimethylbiphenyl-3-yl)propanoic Acid], the IC50 was less than 5 nM.
Next, `Cc1cc(C2CC2)cc(C)c1-c1cc(C(F)(F)F)c(F)c([C@H](CC(=O)O)NC(=O)[C@H](CC(C)C)n2cc(CCCN(C)C)c(C(F)(F)F)cc2=O)c1F` [HU-P2, (3S)-3-(4′-cyclopropyl-2,4-difluoro-2′,6′-dimethyl-5-(trifluoromethyl)-[1,1′-biphenyl]-3-yl)-3-(2-(5-(3-(dimethylamino)propyl)-2-oxo-4-(trifluoromethyl)pyridin-1(2H)-yl)-4-methylpentanamido)propanoic Acid]: 5 to 10 nM; `Cc1cc(F)cc(C)c1-c1cc(C(F)(F)F)c(F)c([C@H](CC(=O)O)NC(=O)[C@H](CC(C)C)n2cc(CCCN(C)C)c(C(F)(F)F)cc2=O)c1F` [HW-P2, (3S)-3-(2-(5-(3-(dimethylamino)propyl)-2-oxo-4-(trifluoromethyl)pyridin-1(2H)-yl)-4-methylpentanamido)-3-(2,4,4′-trifluoro-2′,6′-dimethyl-5-(trifluoromethyl)-[1,1′-biphenyl]-3-yl)propanoic Acid]: less than 5 nM; `Cc1cc(C)c(-c2cc(C(F)(F)F)c(F)c([C@H](CC(=O)O)NC(=O)[C@H](CC(C)C)n3cc(CCCN(C)C)c(C(F)(F)F)cc3=O)c2F)c(C)c1` [HZ-P2, (3S)-3-(2,4-difluoro-2′,4′,6′-trimethyl-5-(trifluoromethyl)biphenyl-3-yl)-3-(2-(5-(3-(dimethylamino)propyl)-2-oxo-4-(trifluoromethyl)pyridin-1(2H)-yl)-4-methylpentanamido)propanoic Acid]: 5 to 10 nM.
Take `Cc1cc(-c2c(C)cc(F)cc2C)cc([C@H](CC(=O)O)NC(=O)[C@H](CC(C)C)n2cc(CCN(C)C)cc(C(F)F)c2=O)c1F` [I-P2, (3S)-3-(4,4′-difluoro-2′,5,6′-trimethyl-[1,1′-biphenyl]-3-yl)-3-(2-(3-(difluoromethyl)-5-(2-(dimethylamino)ethyl)-2-oxopyridin-1(2H)-yl)-4-methylpentanamido)propanoic Acid]: the IC50 is less than 5 nM.
With `Cc1cc(C)c(-c2cc(C(F)(F)F)c(F)c([C@H](CC(=O)O)NC(=O)[C@H](CC(C)C)n3cc(CCN(C)C)c(C(F)(F)F)cc3=O)c2F)c(C)c1` [IF-P2, (3S)-3-(2,4-difluoro-2′,4′,6′-trimethyl-5-(trifluoromethyl)-[1,1′-biphenyl]-3-yl)-3-(2-(5-(2-(dimethylamino)ethyl)-2-oxo-4-(trifluoromethyl)pyridin-1(2H)-yl)-4-methylpentanamido)propanoic Acid], the IC50 is less than 5 nM.
In the case of `Cc1cc(C)c(-c2cc(C(F)(F)F)c(F)c([C@H](CC(=O)O)NC(=O)[C@H](CC(C)C)n3cc(CCN4CCC4)c(C(F)(F)F)cc3=O)c2F)c(C)c1` [IG-P2, (3S)-3-(2-(5-(2-(azetidin-1-yl)ethyl)-2-oxo-4-(trifluoromethyl)pyridin-1(2H)-yl)-4-methylpentanamido)-3-(2,4-difluoro-2′,4′,6′-trimethyl-5-(trifluoromethyl)biphenyl-3-yl)propanoic Acid], the IC50 was less than 5 nM.
Regarding `Cc1cc(C)c(-c2cc(C)c(F)c([C@H](CC(=O)O)NC(=O)[C@H](CC(C)C)n3cc(CCCN(C)C)c(C(F)(F)F)cc3=O)c2F)c(C)c1F` [IW-P2, (3S)-3-(2-(5-(3-(dimethylamino)propyl)-2-oxo-4-(trifluoromethyl)pyridin-1(2H)-yl)-4-methylpentanamido)-3-(2,3′,4-trifluoro-2′,4′,5,6′-tetramethyl-[1,1′-biphenyl]-3-yl)propanoic Acid], the IC50 lay in the range of 5 to 10 nM.
Take `Cc1cc(F)c(C)c(C)c1-c1cc(C(F)(F)F)c(F)c([C@H](CC(=O)O)NC(=O)[C@H](CC(C)C)n2cc(CCN3CCC3)c(C(F)(F)F)cc2=O)c1F` [KT-P2, (3S)-3-(2-(5-(2-(azetidin-1-yl)ethyl)-2-oxo-4-(trifluoromethyl)pyridin-1(2H)-yl)-4-methylpentanamido)-3-(2,4,4′-trifluoro-2′,3′,6′-trimethyl-5-(trifluoromethyl)-[1,1′-biphenyl]-3-yl)propanoic Acid]: the IC50 is less than 5 nM.

The record behind these values is patent US11370773B1, “Inhibiting human integrin (alpha-4) (beta-7)” (Morphic Therapeutic, Inc., priority 2019, dated 2022).
